{"source": "patent US6613806B1", "about": "“Enhancement of the efficacy of benzoylbenzenes” (BASF Corporation, priority 1999, dated 2003)", "assay_type_in_all_cases": "in vivo", "key": {"[1]": {"tested_on": "Blumeria graminis f.sp. tritici", "assay": "Greenhouse wheat powdery mildew (WPM) 4 day residual disease control", "details": "adjuvant alone, NOP 1000 ppm, BB-4 0 ppm", "description": "(§1) Greenhouse Evaluations for Fungicidal Efficacy Disease: Wheat powdery mildew (WPM). Pathogen: Blumeria graminis f.sp. tritici Test Procedure: 1. Wheat seed is planted in plastic pots and maintained in the greenhouse. 2. When the primary leaf (wheat) is fully expanded, formulated test compounds and adjuvants are sprayed with a single nozzle overhead track sprayer at a rate of 200 l/ha. Plants are then allowed to air-dry. 3. Inoculation precedes treatment by 2 days in the case of curative evaluations and follows treatment by 3-4 days in case of residual evaluations. For inoculation, plants are set up on greenhouse benches with bottom watering mats and inoculated by dusting them with conidia from powdery mildew infected plants (stock cultures at an age of 10-14 days). Between inoculation and treatment for curative evaluations and between treatment and inoculation for residual evaluations, plants are maintained in the greenhouse with bottom watering. 4. Disease on the primary leaf (wheat) as percent leaf area with disease symptoms/signs is evaluated about 7 days after inoculation. In the case of wheat, the tips and bases of the leaves are excluded from the evaluation. Percent disease control is then calculated by the following is formula: [formula] Formulation, Reference Compounds and Controls: 1. Formulated compounds are diluted using deionized water. 2. […]"}, "[2]": {"tested_on": "Blumeria graminis f.sp. tritici", "assay": "Greenhouse wheat powdery mildew (WPM) 2 day curative disease control", "details": "Table I; adjuvant alone, NOP 1000 ppm, BB-4 0 ppm", "description": "as §1"}, "[3]": {"tested_on": "Blumeria graminis f.sp. tritici", "assay": "Greenhouse wheat powdery mildew (WPM) antisporulation test", "design": "key: +++: complete (no spore release); ++: strong; +: moderate; none", "details": "Table III; adjuvant alone, NOP 1000 ppm, BB-4 0 ppm", "description": "Greenhouse Evaluations for Fungicidal Efficacy Disease: Wheat powdery mildew (WPM). Pathogen: Blumeria graminis f.sp. tritici Test Procedure: 1. Wheat seed is planted in plastic pots and maintained in the greenhouse. 2. When the primary leaf (wheat) is fully expanded, formulated test compounds and adjuvants are sprayed with a single nozzle overhead track sprayer at a rate of 200 l/ha. Plants are then allowed to air-dry. 3. Inoculation precedes treatment by 2 days in the case of curative evaluations and follows treatment by 3-4 days in case of residual evaluations. For inoculation, plants are set up on greenhouse benches with bottom watering mats and inoculated by dusting them with conidia from powdery mildew infected plants (stock cultures at an age of 10-14 days). Between inoculation and treatment for curative evaluations and between treatment and inoculation for residual evaluations, plants are maintained in the greenhouse with bottom watering. In antisporulation tests, inoculation preceeds compound application by three days. Scale for Anti-Sporulation Effect: +++=complete (no spore release); ++=strong; +=moderate; o=none."}}}
{"smiles": "CCCCCCCCN1CCCC1=O", "note": "[NOP, N-octylpyrrolidone]", "values": [{"measurement": "WPM 4 day Residual Disease Control (%)", "setting": "[1]; Table I", "value": 9, "unit": "%"}, {"measurement": "WPM 4 day Residual Disease Control (%)", "setting": "[1]; Table III", "value": 0, "unit": "%"}, {"measurement": "WPM 2 day Curative Disease Control (%)", "setting": "[2]", "value": 14, "unit": "%"}, {"measurement": "WPM Antisporulation Effect", "setting": "[3]", "value": "o"}]}
